Experimental data taken from paper PMC8820783, “In vitro and in silico studies on clinically important enzymes inhibitory activities of flavonoids isolated from Euphorbia pulcherrima” (Annals of Medicine, 2022).
Read-outs that look alike come from different tables or passages of the source.

How the values were obtained:
[1] = biological target: phosphodiesterase I from Crotalus adamanteus venom (Crotalus adamanteus, UniProt J3SEZ3); test: biochemical
[2] = biological target: T1, mushroom tyrosinase (Agaricus bisporus, UniProt C7FF04); test: Tyrosinase inhibition (L-DOPA, 96-well); type: biochemical; details: L-DOPA substrate, read-out: IC50 ± S.E. (tyrosinase)
T1 construct: purchased Sigma-Aldrich T3824; host or cells: mushroom (natural source)
Method: According to this method, the tested compounds (10 µL) was carefully transfer into a 96-well microplate, mixed with 10 µL mushroom tyrosinase and buffer solution 60 µL. After incubation, 20 µL of 3,4-dihydroxy-l-phenylalanine (L-DOPA) in phosphate buffer was blended, and some amount of dopachrome was added into the reaction mixture. The effect was checked by spectrophotometry at 450 nm with (OD480) (optical density, OD). EZ-Fit software was used to measure the IC50 values in µM. The % inhibition was calculated by using following formula. Percent inhibition=100−OD test well/OD control×100

[3] = biological target: Jack bean (Canavalia ensiformis) urease (Canavalia ensiformis, UniProt P07374); test: biochemical
[4] = biological target: bovine serum albumin (BSA) glycation by MGO (Bos taurus, UniProt P02769); test: Anti-glycation inhibition (BSA-MGO fluorescence); type: biochemical; details: 37 °C, 9 days; for IC50: read-out: IC50 ± S.E. (antiglycation)
Method: After incubation, glycation of protein was measured using fluorescence (emission, 440 nm; excitation, 330 nm), against a blank, and using a microtiter plate spectrophotometer (Spectra Max, Molecular Devices, Sunnyvale, CA).

phosphodiesterase I from Crotalus adamanteus venom, sequence (J3SEZ3 24-851 limits assumed): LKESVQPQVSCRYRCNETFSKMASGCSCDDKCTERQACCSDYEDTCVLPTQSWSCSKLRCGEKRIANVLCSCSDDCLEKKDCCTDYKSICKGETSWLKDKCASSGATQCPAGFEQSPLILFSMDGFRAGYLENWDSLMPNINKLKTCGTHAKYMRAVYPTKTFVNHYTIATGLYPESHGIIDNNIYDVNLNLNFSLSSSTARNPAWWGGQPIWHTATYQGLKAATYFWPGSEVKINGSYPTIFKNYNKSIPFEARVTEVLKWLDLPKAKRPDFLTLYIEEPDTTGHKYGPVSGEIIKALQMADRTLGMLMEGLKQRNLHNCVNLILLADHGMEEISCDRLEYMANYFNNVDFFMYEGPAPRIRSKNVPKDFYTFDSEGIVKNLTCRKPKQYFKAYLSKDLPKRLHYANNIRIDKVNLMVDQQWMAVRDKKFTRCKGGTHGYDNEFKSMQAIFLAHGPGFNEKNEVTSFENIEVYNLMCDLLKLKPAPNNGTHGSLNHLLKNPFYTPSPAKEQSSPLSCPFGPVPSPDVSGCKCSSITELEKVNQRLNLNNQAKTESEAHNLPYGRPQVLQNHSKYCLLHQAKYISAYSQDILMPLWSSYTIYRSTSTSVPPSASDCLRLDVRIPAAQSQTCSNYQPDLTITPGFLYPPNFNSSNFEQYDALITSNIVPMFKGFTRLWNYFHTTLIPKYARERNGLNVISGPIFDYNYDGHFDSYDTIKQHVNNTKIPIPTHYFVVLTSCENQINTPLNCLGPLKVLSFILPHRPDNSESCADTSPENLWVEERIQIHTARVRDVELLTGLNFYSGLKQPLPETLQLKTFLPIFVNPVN
bovine serum albumin (BSA) glycation by MGO, sequence (P02769 25-607): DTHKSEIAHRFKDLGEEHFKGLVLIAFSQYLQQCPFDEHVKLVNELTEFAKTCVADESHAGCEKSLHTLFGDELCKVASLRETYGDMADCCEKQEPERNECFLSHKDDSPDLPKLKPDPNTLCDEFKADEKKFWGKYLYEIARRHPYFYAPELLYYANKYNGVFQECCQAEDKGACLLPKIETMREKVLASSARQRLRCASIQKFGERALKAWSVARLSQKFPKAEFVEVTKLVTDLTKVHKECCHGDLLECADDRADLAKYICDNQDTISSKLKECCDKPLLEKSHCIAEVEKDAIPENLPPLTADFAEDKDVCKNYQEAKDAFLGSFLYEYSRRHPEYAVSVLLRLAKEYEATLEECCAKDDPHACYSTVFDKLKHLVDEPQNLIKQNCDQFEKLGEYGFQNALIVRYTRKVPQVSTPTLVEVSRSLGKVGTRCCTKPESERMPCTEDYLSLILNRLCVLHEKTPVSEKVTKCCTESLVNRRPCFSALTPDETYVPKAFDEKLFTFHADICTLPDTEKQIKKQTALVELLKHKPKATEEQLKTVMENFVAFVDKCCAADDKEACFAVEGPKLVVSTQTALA
Jack bean (Canavalia ensiformis) urease, sequence (P07374 whole entry, looked up): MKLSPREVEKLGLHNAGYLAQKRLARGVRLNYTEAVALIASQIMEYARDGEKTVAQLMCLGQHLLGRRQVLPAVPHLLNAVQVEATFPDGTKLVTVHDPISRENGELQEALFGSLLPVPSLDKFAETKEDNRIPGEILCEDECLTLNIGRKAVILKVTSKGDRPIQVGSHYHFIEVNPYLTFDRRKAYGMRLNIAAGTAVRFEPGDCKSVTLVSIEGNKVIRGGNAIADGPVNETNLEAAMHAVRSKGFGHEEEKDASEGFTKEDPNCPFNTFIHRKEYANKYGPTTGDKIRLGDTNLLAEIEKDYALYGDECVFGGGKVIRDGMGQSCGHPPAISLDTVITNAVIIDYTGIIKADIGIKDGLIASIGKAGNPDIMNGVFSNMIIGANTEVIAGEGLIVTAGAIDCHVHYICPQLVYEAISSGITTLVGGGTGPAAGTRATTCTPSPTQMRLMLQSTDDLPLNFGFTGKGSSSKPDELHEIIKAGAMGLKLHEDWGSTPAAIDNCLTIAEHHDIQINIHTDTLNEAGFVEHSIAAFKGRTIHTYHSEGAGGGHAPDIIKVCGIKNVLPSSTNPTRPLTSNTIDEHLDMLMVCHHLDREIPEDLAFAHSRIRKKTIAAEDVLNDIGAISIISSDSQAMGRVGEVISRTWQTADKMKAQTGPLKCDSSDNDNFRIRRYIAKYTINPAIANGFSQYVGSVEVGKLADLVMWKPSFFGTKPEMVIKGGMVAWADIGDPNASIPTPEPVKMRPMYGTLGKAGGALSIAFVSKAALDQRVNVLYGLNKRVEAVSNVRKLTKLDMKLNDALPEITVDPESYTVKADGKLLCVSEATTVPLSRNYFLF
T1 sequence (C7FF04 1-392 limits assumed): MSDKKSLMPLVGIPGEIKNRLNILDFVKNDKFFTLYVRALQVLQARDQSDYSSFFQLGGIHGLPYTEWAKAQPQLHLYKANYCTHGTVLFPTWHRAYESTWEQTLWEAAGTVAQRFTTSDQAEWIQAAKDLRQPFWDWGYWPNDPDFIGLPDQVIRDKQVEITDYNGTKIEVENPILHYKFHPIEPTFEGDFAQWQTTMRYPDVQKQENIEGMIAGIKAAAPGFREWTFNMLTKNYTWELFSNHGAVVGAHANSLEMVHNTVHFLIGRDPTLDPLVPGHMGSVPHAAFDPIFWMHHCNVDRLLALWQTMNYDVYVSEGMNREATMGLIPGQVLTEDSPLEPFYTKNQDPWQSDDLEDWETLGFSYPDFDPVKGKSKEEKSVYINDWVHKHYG

**Q.** With `O=C(O)CN(CCN(CC(=O)O)CC(=O)O)CC(=O)O` [EDTA, reference compound] as the compound, how does the IC50 ([1]; table head prints no unit, read-out: IC50 ± S.E.M. (phosphodiesterase)) read?
**A.** 265 ± 2.24 µM

**Q.** With `COc1cc(-c2oc3cc(O)c(OC)c(O)c3c(=O)c2O)ccc1O` [compound 1, 3,5,7-trihydroxy-2-(4-hydroxy-3-methoxyphenyl)-6-methoxy-4H-chromen-4-one] as the compound, how does the IC50 [1] read?
**A.** 148.7 ± 1.09 µM

**Q.** What about the IC50 [2] of the same compound?
**A.** 48.7 ± 2.19 µM

**Q.** What about the IC50 [3] of the same compound?
**A.** 15.3 ± 2.13 µM

**Q.** What about the “IC50 ± S.E. (antiglycation)” value [4] of the same compound?
**A.** inactive

**Q.** For `COc1c(O)cc2oc(-c3ccc(O)c(O)c3)c(O)c(=O)c2c1O` [compound 2, 2-(3,4-dihydroxyphenyl)-3,5,7-trihydroxy-6-methoxy-4H-chromen-4-one], which IC50 [1] is on record?
**A.** 95.2 ± 4.14 µM

**Q.** What about the IC50 [2] of the same compound?
**A.** 74.8 ± 1.79 µM

**Q.** What about the IC50 [3] of the same compound?
**A.** 19 ± 2.43 µM

**Q.** And the IC50 [4]?
**A.** 244.8 ± 1.79 µM

**Q.** With `C[C@@H]1O[C@@H](OC[C@H]2O[C@@H](Oc3c(-c4ccc(O)c(O)c4)oc4cc(O)cc(O)c4c3=O)[C@H](O)[C@@H](O)[C@@H]2O)[C@H](O)[C@H](O)[C@H]1O` [rutin, Rutin, reference compound] as the compound, how does the IC50 [4] read?
**A.** 295 ± 3.14 µM
